According to US20120115801A1, “METHOD FOR OBTAINING A STABLE DISPERSION OF BENZOYL PEROXIDE” (Dow Pharmaceutical Sciences, Inc., priority 2008, published 2012):

Legend:
[1] = benzoyl peroxide wettability study; assay type: physicochemical; details: 1.5 g powder, agitated as in Example 1
Method: A benzoyl peroxide wettability study was conducted as follows. 1.5 grams of a hydrous benzoyl peroxide powder was spread on the surface of each of three test fluids contained in glass beakers having about a 5 cm diameter, containing either 30 ml of purified water (Sample A), 30 ml of a fluid composed of 5% propylene glycol and 95% purified water (Sample B), or 30 ml of a fluid composed of 50% propylene glycol and 50% purified water (Sample C). At the bottom of each beaker was a 12 mm×8 mm magnetic stir bar. Each of the fluids, with the benzoyl peroxide powder on the surface, was stirred at 1200 rpm. After 5 and 10 minutes of stirring, the samples were visually inspected for the degree of wetting of the benzoyl peroxide. Good wetting was evidenced by visual determination of little or no agglomeration and/or crusting. It was determined that the wetting of the benzoyl peroxide in Sample A was poor, with little or no visual evidence of wetting. The wetting of the benzoyl peroxide in Sample B was determined to be good, with visual evidence of wetting of a significant portion of the benzoyl peroxide powder. The wetting of the benzoyl peroxide in Sample C was determined to be very good, with visual evidence of wetting of the majority of the benzoyl peroxide powder.
(§1) The wetting study of Example 1 was repeated utilizing 1.5 grams of benzoyl peroxide powder and 30 ml of a fluid composed of 7.5% ethanol and 92.5% water. The fluid with the benzoyl peroxide powder was agitated as described in Example 1. The wetting of the benzoyl peroxide in the fluid was determined to be very good, with visual evidence of wetting of the majority, about 90%, of the benzoyl peroxide powder.
as §1, with “20% polyethylene glycol (PEG 200)” for “7.5% ethanol”, “80%” for “92.5%”

[2] = visual inspection of the benzoyl peroxide suspension and wet-milling (Gaulin Mill) to a micro-suspension; details: for stability of micro-suspension after wet-milling: Gaulin Mill, no surfactants
Method: A suspension was prepared containing 33.2% w/w hydrous benzoyl peroxide utilizing a dispersing fluid containing 34.0% w/w propylene glycol and 66% w/w water. Into a 200 gallon stainless steel tank, 175 kg of purified water and 90 kg of propylene glycol were combined. The combination was agitated with a propeller mixer to form a mixture. While mixing, 132 kg of hydrous benzoyl peroxide. (74.5% benzoyl peroxide) powder was added. Mixing continued at 1024 rpm for about 20 minutes to wet and disperse the benzoyl peroxide powder and to obtain a benzoyl peroxide suspension.
The suspension was passed through a Gaulin Mill for micronization using a wet-milling method. […] The propylene glycol content was diluted upon incorporation of benzoyl peroxide suspension into the final topical dosage form to make the 6.26% benzoyl peroxide gel.
A suspension was prepared containing 24.8% w/w hydrous benzoyl peroxide utilizing a dispersing fluid containing 9.4% w/w propylene glycol and 90.6% w/w water. Into a stainless steel tank, 36 kg of purified water and 3.75 kg of propylene glycol were combined. The combination was agitated with a propeller mixer to form a mixture. While mixing, 13.12 kg of hydrous benzoyl peroxide (74.5% benzoyl peroxide) was added. Mixing continued at 1450 rpm for about 10 minutes to wet and disperse the benzoyl peroxide powder and to obtain a benzoyl peroxide suspension.
This suspension was transferred to a Gaulin Mill for micronization using a wet-milling method.
A suspension was prepared containing 24.7% benzoyl peroxide (hydrous) utilizing a dispersing fluid containing 47.6% w/w propylene glycol and 52.4% w/w water. Into a stainless steel tank, 27.5 kg of purified water and 25 kg of propylene glycol were combined. The combination was agitated with a propeller mixer to form a mixture. While mixing, 17.19 kg of hydrous benzoyl peroxide (74.5% benzoyl peroxide) was added. Mixing continued at 858 rpm for about 1 hour to wet and disperse the benzoyl peroxide powder and to obtain a benzoyl peroxide suspension.
This suspension was passed through a Gaulin Mill for micronization using a wet-milling method. […] The propylene glycol content was diluted upon combining the benzoyl peroxide suspension with the clindamycin solution to form the final pharmaceutical product.

[3] = 30 ml fluid of 7.5% ethanol and 92.5% water
[4] = 30 ml fluid of 20% polyethylene glycol (PEG 200) and 80% water

## O=C(OOC(=O)c1ccccc1)c1ccccc1 [benzoyl peroxide]
[1]; [3]
  portion of the benzoyl peroxide powder wetted (visual evidence): about 90%
  wetting of the benzoyl peroxide in the fluid (visual): very good
[1]; [4]
  portion of the benzoyl peroxide powder wetted (visual evidence): about 90%
  wetting of the benzoyl peroxide in the fluid (visual): very good
[2]; Example 2: 33.2% w/w hydrous benzoyl peroxide in 34.0% w/w propylene glycol / 66% w/w water
  stability of micro-suspension after wet-milling: stable
[2]; Example 2: 33.2% w/w hydrous benzoyl peroxide in 34.0% w/w propylene glycol / 66% w/w water, mixed 1024 rpm about 20 minutes
  appearance of suspension upon visual inspection: smooth and free of lumps
[2]; Example 3: 24.8% w/w hydrous benzoyl peroxide in 9.4% w/w propylene glycol / 90.6% w/w water
  stability of micro-suspension after wet-milling: stable
[2]; Example 3: 24.8% w/w hydrous benzoyl peroxide in 9.4% w/w propylene glycol / 90.6% w/w water, mixed 1450 rpm about 10 minutes
  appearance of suspension upon visual inspection: smooth and free of lumps
[2]; Example 4: 24.7% benzoyl peroxide (hydrous) in 47.6% w/w propylene glycol / 52.4% w/w water
  stability of micro-suspension after wet-milling: stable
[2]; Example 4: 24.7% benzoyl peroxide (hydrous) in 47.6% w/w propylene glycol / 52.4% w/w water, mixed 858 rpm about 1 hour
  appearance of suspension upon visual observation: smooth and free of lumps
